Data as given in patent US11085056B2, “Transfection complexes and methods of using the same” (MOLECULAR TRANSFER, INC., priority 2015, dated 2021).
“And” between values parts separate entries of the source, which are not always exact repeats. Equal values may be shown once.

What was measured:
HeLa Cells [1] = experiment: Transfection of HeLa cells with DOTMA/DOPE/peptide and eGFP plasmid, fluorescent plate reader; type: cell-based; conditions: DOTMA/DOPE 1:1 plus peptide with RRRRRRRRRRRR (SEQ ID NO: 109) at n terminus; EF1Alpha eGFP plasmid; 0.01 mL complex; 42 hours
Experimental: (§1) Cells were plated to so that on the day of transfection the cells were 60-70% confluent in 96 well tissue culture plates. A DOMTA/DOPE Lipid solution (1:1 molar ratio) at 2 mg/mL in water were mixed with an equal volume of surface ligand peptides that had the nucleic acid binding moiety RRRRRRRRRRRR (SEQ ID NO: 109) covalently linked to the n terminus of each peptide during peptide synthesis. Peptides were at 2 mg/mL in water. The DOTMA/DOPE and the surface ligand peptide solution the transfection reagent was diluted 1 to 1 (v/v) in water. DOMTA/DOPE/PEPTIDE solutions were added to 0.1 mL of a plasmid DNA solution (EF1Alpha eGFP plasmid) at 5 μg/mL in OptiMEM. Lipofectamine 2000 was obtained from Life Technologies.
(§2) All solutions were at room temperature. A volume of 0.2 mL of a 5 μg/mL solution of DNA was aliquoted into each well of a non-tissue cultured treated plate. 4.0 μL of transfection reagents were added to DNA solutions respectively. The transfection reagent and DNA solution was mixed by pipetting up and down twice. Transfection complexes were formed for 10 minutes. After 10 minutes, 0.01 or 0.02 mL of the transfection complex was added to cells. HuVEC, HeLa, human adult keratinocytes, human primary adult fibroblast, and rat cortical neurons all respectively received 0.01 mL of the tramsfectopm complex. Human skeletal muscle cells, mouse C2C12 cells, Jurkat, and THP-1 cells received 0.02 mL of the transfection complex. Cells were incubated for 42 hours at 37° C. at 5% CO2. Plates were read on a fluorescent plate reader. Cells were also examined visually under a microscope to assess the extent of transfection (in terms of the percent of cells transfected) with a fluorescent microscope. Other modes of analysis, for example quantification with B-galactosidase or luciferase reports plasmids can also be used. […] Surface ligand that caused increase expression of GFP over the lipid DOTMA with no surface ligand were considered to enhance transfection or had higher % cells transfected were considered to enhance transfection. Peptides that gave greater than 2 fold enhancement are noted in bold and could be further optimized by adding different transfection enhancers or could be used with different cationic lipids or polymers.

C2C12 Cells = experiment: Transfection of C2C12 cells with DOTMA/DOPE/peptide and eGFP plasmid, fluorescent plate reader; type: cell-based, mouse; conditions: DOTMA/DOPE 1:1 plus peptide with RRRRRRRRRRRR (SEQ ID NO: 109) at n terminus; EF1Alpha eGFP plasmid; 0.02 mL complex; 42 hours
Experimental: as §1, §2

HuVec Cells = experiment: Transfection of HuVec cells with DOTMA/DOPE/peptide and eGFP plasmid, fluorescent plate reader; type: cell-based; conditions: DOTMA/DOPE 1:1 plus peptide with RRRRRRRRRRRR (SEQ ID NO: 109) at n terminus; EF1Alpha eGFP plasmid; 0.01 mL complex; 42 hours
Experimental: as §1, §2

NL-1 iPS Cells = experiment: Transfection of NL-1 iPS cells with DOTMA/DOPE/peptide and eGFP plasmid, fluorescent plate reader; type: cell-based; conditions: DOTMA/DOPE 1:1 plus peptide with RRRRRRRRRRRR (SEQ ID NO: 109) at n terminus; EF1Alpha eGFP plasmid; 42 hours
Experimental: as §1, §2

Jurkat Cells = experiment: Transfection of Jurkat cells with DOTMA/DOPE/peptide and eGFP plasmid, fluorescent plate reader; type: cell-based; conditions: DOTMA/DOPE 1:1 plus peptide with RRRRRRRRRRRR (SEQ ID NO: 109) at n terminus; EF1Alpha eGFP plasmid; 0.02 mL complex; 42 hours
Experimental: as §1, §2

Human Fibroblast Cells = experiment: Transfection of human fibroblast cells with DOTMA/DOPE/peptide and eGFP plasmid, fluorescent plate reader; type: cell-based; conditions: DOTMA/DOPE 1:1 plus peptide with RRRRRRRRRRRR (SEQ ID NO: 109) at n terminus; EF1Alpha eGFP plasmid; 0.01 mL complex; 42 hours
Experimental: as §1, §2

some examined cell types = experiment: Transfection expression and % cells transfected over the no peptide control; type: cell-based; conditions: on some examined cell types
Experimental: as §1, §2

HeLa Cells [2] = experiment: Transfection of HeLa cells with DOTMA/SEQ ID NO: 72/peptide compared with Lipofectamine 2000; type: cell-based; conditions: fusogenic peptide 0.1 mg/mL
Experimental: as §1, §2
The fusogenic peptide was added to the DOMTA/peptide formulation to achieve a final concentration of 0.1 mg/mL to see if transfection reagents were further enhanced by the addition of a fusogenic peptide and could provide higher transfection efficiency into HeLa cells and expression than the commercially available Lipofectamine 2000.

[3] = 0.1 μL of DOTMA/SEQ ID NO: 72/Peptide in well of a 96 well plate
[4] = 0.2 μL of DOTMA/SEQ ID NO: 72/Peptide in well of a 96 well plate
[5] = 0.3 μL of DOTMA/SEQ ID NO: 72/Peptide in well of a 96 well plate
[6] = 0.4 μL of DOTMA/SEQ ID NO: 72/Peptide in well of a 96 well plate

Substance | RF (Relative Fluorescence) of Transfection of HeLa Cells (HeLa Cells [1]) | RF (Relative Fluorescence) of Transfection of C2C12 Cells (C2C12 Cells) | RF (Relative Fluorescence) of Transfection of HuVec Cells (HuVec Cells) | RF (Relative Fluorescence) of Transfection of NL-1 iPS Cells (NL-1 iPS Cells) | RF (Relative Fluorescence) of Transfection of Jurkat Cells (Jurkat Cells) | RF (Relative Fluorescence) of Transfection of Human Fibroblast Cells (Human Fibroblast Cells) | transfection expression and the % cells transfected over the no peptide control (some examined cell types) | RF (Relative Fluorescence), DOTMA/SEQ ID NO: 72/Peptide, HeLa Cells (HeLa Cells [2]; [3]) | RF (Relative Fluorescence), DOTMA/SEQ ID NO: 72/Peptide, HeLa Cells (HeLa Cells [2]; [4]) | RF (Relative Fluorescence), DOTMA/SEQ ID NO: 72/Peptide, HeLa Cells (HeLa Cells [2]; [5]) | RF (Relative Fluorescence), DOTMA/SEQ ID NO: 72/Peptide, HeLa Cells (HeLa Cells [2]; [6])
383 (TAG; Peptidic transfection agent) [compound 383] | 8012 | 1876 | 20267 | 21983 | 14910 | 5896 | – | – | – | – | –
501 (DLGTAGSCLRRFSTM; Peptidic transfection agent) [compound 501] | – | 5913 | – | – | 12350 | 9473 | increased | 23571 | 23993 | 20410 | 14749
352 (RIQNLLKITNLRIKFVK; Peptidic transfection agent) [compound 352] | 32126 | 3324 | 3130 | 11628 | 3150 | 3059 | increased | – | – | – | –
393 (LGTIPG; Peptidic transfection agent) [compound 393] | – | – | – | – | – | – | increased | – | – | – | –
229 (PPFLMLLKGSTR; Peptidic transfection agent) [compound 229] | 8816 | 1164 | 5452 | 13491 | 8079 | 6811 | increased | – | – | – | –
349 (RNIAEIIKDI; Peptidic transfection agent) [compound 349] | 4433 | – | 22907 | 33103 | 23167 | 8810 | increased | – | – | – | –
256 (RQVFQVAYIIIKA; Peptidic transfection agent) [compound 256] | 2243 | 3207 | 3030 | 1825 | 3322 | 2656 | increased | – | – | – | –
361 (YIGSR; Peptidic transfection agent) [compound 361] | 3698 | 585 | 6017 | 9363 | 7006 | 7014 | increased | – | – | – | –
354 (SINNTAVMQRLT; Peptidic transfection agent) [compound 354] | 4403 | 1912 | 19284 | 24043 | 16705 | 4998 | increased | – | – | – | –
371 (GPAGKDGEAGAQG; Peptidic transfection agent) [compound 371] | 5180 | 983 | 10669 | 17587 | 6093 | 4584 | – | – | – | – | –
234 (YEKPGSPPREVVPRPRPGV; Peptidic transfection agent) [compound 234] | 3867 | 681 | 13956 | 14410 | 5441 | 4145 | – | – | – | – | –
235 (KARSFNVNQLLQD; Peptidic transfection agent) [compound 235] | – | – | 26940 | – | – | – | – | – | – | – | –
107 (RRRRRRRR; Peptidic transfection agent) [compound 107] | 75 | – | – | 1441 | – | – | – | – | – | – | –
363 (LAGSCLARFSTM; Peptidic transfection agent) [compound 363] | 2590 | 1080 | 1383 | 4189 | 2432 | 3008 | – | – | – | – | –
236 (KNNQKSEPLIGRKKT; Peptidic transfection agent) [compound 236] | 7202 and 5042 | – | 14418 | 43542 and 22256 | – | 3630 and 3000 | increased | 5993 | 8846 | 8492 | 7316
502 (RNIAEIIKDI; Peptidic transfection agent) [compound 502] | – | 2589 | – | – | – | – | – | – | – | – | –
224 (KPDVRSYTITG; Peptidic transfection agent) [compound 224] | 5559 | 1469 | 15945 | 25209 | 13170 | 5995 | – | – | – | – | –
335 (TVFSVDQDNMLE; Peptidic transfection agent) [compound 335] | 26954 | 4689 | 6350 | 14424 | 4567 | 8534 | – | 12866 | 12458 | 11547 | 9753
